Results published in patent US11168055B2, “Endocyclic thiamidinoamide-arylamide compound and use thereof for treating hepatitis B” (SHANGHAI LONGWOOD BIOPHARMACEUTICALS CO., LTD., priority 2017, dated 2021).
pEC50: −log10 of the molar value. Read-outs that look alike come from different tables or passages of the source.

Experiments:
[1] = system: HBV DNA in the supernatant of HepG2.2.15; test: Determination of anti-HBV activity in HepG2.2.15 cell (HBV DNA in supernatant by qPCR); format: cell-based, Hepatitis B virus; details: HBV DNA, read-out: Experiment 2 Cell experiment EC50
HepG2 cells = test: Determination of cytotoxicity (HepG2 cells, resazurin assay, 4 days); format: cell-based; details: read-out: Experiment 3 Cytotoxicity CC50
Method: Experiment 3: Determination of Cytotoxicity
The cytotoxicity of the test compound was tested using HepG2 cells. The cells were incubated for 4 days in the presence of the test compound. Cell activity was assessed using the resazurin assay.

| SMILES | pEC50 ([1]; HepG2.2.15 cells) | CC50 (HepG2 cells) [µM] | pEC50 ([1]; Hepatitis B virus, HepG2.2.15, HepG2.2.15 cells) |
| --- | --- | --- | --- |
| Cn1cc2c(c1C(=O)Nc1ccc(F)c(F)c1)CC[C@H](CO)NS2(=N)=O (single isomer, unassigned) [Compound 40g2] | 6.00 to 7.00 | > 30 | – |
| Cn1cc2c(c1C(=O)Nc1ccc(F)c(F)c1)C=C[C@H](CO)NS2(=N)=O (single isomer, unassigned) [Compound 30g2] | 6.00 to 7.00 | > 30 | – |
| C[C@@H](OCc1ccccc1)[C@H]1C=Cc2c(cn(C)c2C(=O)Nc2cc(F)c(F)c(F)c2)S(=N)(=O)N1 (single isomer, unassigned) [Compound 10ddd2] | 7.00 to 10.00 | > 30 | – |
| C[C@@H](OCc1ccccc1)[C@H]1C=Cc2c(cn(C)c2C(=O)Nc2ccc(F)c(C#N)c2)S(=N)(=O)N1 (single isomer, unassigned) [Compound 10ccc2] | 7.00 to 10.00 | > 30 | – |
| Cn1cc2c(c1C(=O)Nc1cc(F)nc(C#N)c1)CC[C@H](C1CCCCC1)NS2(=N)=O (single isomer, unassigned) [Compound 20dd2] | 7.00 to 10.00 | > 30 | – |
| CC(C)[C@H]1C=Cc2c(nn(C)c2C(=O)Nc2ccc(F)c(C#N)c2)S(=N)(=O)N1 (single isomer, unassigned) [Compound 70a2] | 7.00 to 10.00 | > 30 | – |
| CC(O)[C@H]1CCc2c(cn(C)c2C(=O)Nc2ccc(F)c(C#N)c2)S(=N)(=O)N1 (single isomer, unassigned) [Compound 40b2] | 6.00 to 7.00 | > 30 | – |
| CN=S1(=O)N[C@@H](C(C)C)CCc2c1cn(C)c2C(=O)Nc1ccc(F)c(F)c1 (single isomer, unassigned) [Compound 60a2] | 7.00 to 10.00 | > 30 | – |
| CC[C@H](C)[C@H]1C=Cc2c(cn(C)c2C(=O)Nc2ccc(F)c(C#N)c2)S(=N)(=O)N1 (single isomer, unassigned) [Compound 10o2] | 7.00 to 10.00 | > 30 | – |
| CC(C)C[C@H]1C=Cc2c(cn(C)c2C(=O)Nc2ccc(F)c(C#N)c2)S(=O)(=NC(C)C)N1 (single isomer, unassigned) [Compound 50u2] | 7.00 to 10.00 | > 30 | – |
| CN=S1(=O)N[C@@H](CC(C)C)CCc2c1cn(C)c2C(=O)Nc1ccc(F)c(C#N)c1 (single isomer, unassigned) [Compound 60v2] | 7.00 to 10.00 | > 30 | – |
| Cn1cc2c(c1C(=O)Nc1ccnc(C(F)F)c1)CC[C@H](C1CCCCC1)NS2(=N)=O (single isomer, unassigned) [Compound 20ee2] | 7.00 to 10.00 | > 30 | – |
| CN=S1(=O)N[C@@H](CC(C)C)C=Cc2c1cn(C)c2C(=O)Nc1ccc(F)c(C#N)c1 (single isomer, unassigned) [Compound 50s2] | 7.00 to 10.00 | > 30 | – |
| COc1ccc(CC[C@H](C)[C@H]2C=Cc3c(cn(C)c3C(=O)Nc3cc(F)nc(C#N)c3)S(=N)(=O)N2)cc1 (single isomer, unassigned) [Compound 10vvv2] | 7.00 to 10.00 | > 30 | – |
| CC(C)[C@H]1C=Cc2c(cn(C)c2C(=O)Nc2cc(F)nc(C#N)c2)S(=N)(=O)N1 (single isomer, unassigned) [Compound 10e2] | 7.00 to 10.00 | > 30 | – |
| CC(C)[C@H]1C=Cc2c(cn(C)c2C(=O)Nc2ccc(F)c(F)c2)S(=N)(=O)N1 (single isomer, unassigned) [Compound 10a2] | 7.00 to 10.00 | > 30 | – |
| COc1ccc(CC[C@H](C)[C@H]2CCc3c(cn(C)c3C(=O)Nc3cc(F)c(F)c(F)c3)S(=N)(=O)N2)cc1 (single isomer, unassigned) [Compound 20ttt2] | 7.00 to 10.00 | > 30 | – |
| CC(C)C[C@H]1CCc2c(nn(C)c2C(=O)Nc2ccc(F)c(C#N)c2)S(=N)(=O)N1 (single isomer, unassigned) [Compound 80b2] | 7.00 to 10.00 | > 30 | – |
| CC(O)[C@H]1CCc2c(cn(C)c2C(=O)Nc2ccc(F)c(F)c2)S(=N)(=O)N1 (single isomer, unassigned) [Compound 40a2] | 6.00 to 7.00 | > 30 | – |
| CC(C)C[C@H]1C=Cc2c(nn(C)c2C(=O)Nc2ccc(F)c(C#N)c2)S(=N)(=O)N1 (single isomer, unassigned) [Compound 70b2] | 7.00 to 10.00 | > 30 | – |
| CC(C)C[C@H]1C=Cc2c(cn(C)c2C(=O)Nc2ccc(F)c(C#N)c2)S(=O)(=NC2CC2)N1 (single isomer, unassigned) [Compound 50v2] | 7.00 to 10.00 | > 30 | – |
| CN=S1(=O)N[C@@H](C(C)C)C=Cc2c1cn(C)c2C(=O)Nc1ccc(F)c(F)c1 (single isomer, unassigned) [Compound 50a2] | 7.00 to 10.00 | > 30 | – |
| CCN=S1(=O)N[C@@H](CC(C)C)C=Cc2c1cn(C)c2C(=O)Nc1ccc(F)c(C#N)c1 (single isomer, unassigned) [Compound 50t2] | 7.00 to 10.00 | > 30 | – |

| SMILES | pEC50 ([1]; HepG2.2.15 cells) | CC50 (HepG2 cells) [µM] | pEC50 ([1]; Hepatitis B virus, HepG2.2.15, HepG2.2.15 cells) |
| --- | --- | --- | --- |
| CCN=S1(=O)N[C@@H](CC(C)C)CCc2c1cn(C)c2C(=O)Nc1ccc(F)c(C#N)c1 (single isomer, unassigned) [Compound 60w2] | 7.00 to 10.00 | > 30 | – |
| CC(C)[C@H]1CCc2c(cn(C)c2C(=O)Nc2ccc(F)c(C#N)c2)S(=N)(=O)N1 (single isomer, unassigned) [Compound 20b2] | 7.00 to 10.00 | > 30 | – |
| Cn1cc2c(c1C(=O)Nc1ccc(F)c(C#N)c1)C=C[C@H](C1CCCCC1)NS2(=N)=O (single isomer, unassigned) [Compound 10cc2] | 7.00 to 10.00 | > 30 | – |
| CC(C)C[C@H]1C=Cc2c(cn(C)c2C(=O)Nc2cc(F)nc(C#N)c2)S(=N)(=O)N1 (single isomer, unassigned) [Compound 10w2] | 7.00 to 10.00 | > 30 | – |
| Cn1cc2c(c1C(=O)Nc1ccc(F)c(F)c1)C=C[C@H](C1CCCCC1)NS2(=N)=O (single isomer, unassigned) [Compound 10bb2] | 7.00 to 10.00 | > 30 | – |
| CN=S1(=O)N[C@@H](C(C)C)CCc2c1nn(C)c2C(=O)Nc1ccc(F)c(C#N)c1 (single isomer, unassigned) [Compound 90a2] | 7.00 to 10.00 | > 30 | – |
| CC(C)[C@H]1CCc2c(nn(C)c2C(=O)Nc2ccc(F)c(C#N)c2)S(=N)(=O)N1 (single isomer, unassigned) [Compound 80a2] | 7.00 to 10.00 | > 30 | – |
| CC(C)[C@H]1C=Cc2c(cn(C)c2C(=O)Nc2ccc(F)c(C#N)c2)S(=N)(=O)N1 (single isomer, unassigned) [Compound 10b2] | – | > 30 | 7.00 to 10.00 |
| CC(C)[C@H]1C=Cc2c(cn(C)c2C(=O)Nc2cc(F)c(F)c(F)c2)S(=N)(=O)N1 (single isomer, unassigned) [Compound 10c2] | 7.00 to 10.00 | > 30 | – |
| CC[C@H](C)[C@H]1C=Cc2c(cn(C)c2C(=O)Nc2ccc(F)c(F)c2)S(=N)(=O)N1 (single isomer, unassigned) [Compound 10n2] | 7.00 to 10.00 | > 30 | – |
| C[C@@H](OCc1ccccc1)[C@H]1CCc2c(cn(C)c2C(=O)Nc2ccc(F)c(C#N)c2)S(=N)(=O)N1 (single isomer, unassigned) [Compound 20ccc2] | 7.00 to 10.00 | > 30 | – |
| CC(O)[C@H]1C=Cc2c(cn(C)c2C(=O)Nc2ccc(F)c(C#N)c2)S(=N)(=O)N1 (single isomer, unassigned) [Compound 30b2] | 6.00 to 7.00 | > 30 | – |
| CC(O)[C@H]1C=Cc2c(cn(C)c2C(=O)Nc2ccc(F)c(F)c2)S(=N)(=O)N1 (single isomer, unassigned) [Compound 30a2] | 6.00 to 7.00 | > 30 | – |
| CC(C)C[C@H]1CCc2c(cn(C)c2C(=O)Nc2ccc(F)c(C#N)c2)S(=O)(=NC(C)C)N1 (single isomer, unassigned) [Compound 60x2] | 7.00 to 10.00 | > 30 | – |
| CC(C)[C@@H]1C=Cc2c(cn(C)c2C(=O)Nc2ccc(F)c(F)c2)S(=N)(=O)N1 (single isomer, unassigned) [Compound 10g2] | 7.00 to 10.00 | > 30 | – |
| CC(C)[C@H]1C=Cc2c(cn(C)c2C(=O)Nc2ccnc(C(F)F)c2)S(=N)(=O)N1 (single isomer, unassigned) [Compound 10f2] | 7.00 to 10.00 | > 30 | – |
| CC(C)[C@H]1CCc2c(cn(C)c2C(=O)Nc2cc(F)c(F)c(F)c2)S(=N)(=O)N1 (single isomer, unassigned) [Compound 20c2] | 7.00 to 10.00 | > 30 | – |
| CC(C)[C@@H]1C=Cc2c(cn(C)c2C(=O)Nc2ccc(F)c(C#N)c2)S(=N)(=O)N1 (single isomer, unassigned) [Compound 10h2] | < 6.00 | > 30 | – |
| CCN=S1(=O)N[C@@H](C(C)C)CCc2c1cn(C)c2C(=O)Nc1ccc(F)c(C#N)c1 (single isomer, unassigned) [Compound 60g2] | 7.00 to 10.00 | > 30 | – |
| CC(C)[C@H]1CCc2c(cn(C)c2C(=O)Nc2ccc(F)c(F)c2)S(=N)(=O)N1 (single isomer, unassigned) [Compound 20a2] | 7.00 to 10.00 | > 30 | – |
| CC(C)C[C@H]1CCc2c(cn(C)c2C(=O)Nc2ccc(F)c(C#N)c2)S(=O)(=NC2CC2)N1 (single isomer, unassigned) [Compound 60y2] | 7.00 to 10.00 | > 30 | – |
| CN=S1(=O)N[C@@H](CC(C)C)CCc2c1nn(C)c2C(=O)Nc1ccc(F)c(C#N)c1 (single isomer, unassigned) [Compound 90b2] | 7.00 to 10.00 | > 30 | – |
| CC(O)[C@H]1C=Cc2c(cn(C)c2C(=O)Nc2cc(F)c(F)c(F)c2)S(=N)(=O)N1 (single isomer, unassigned) [Compound 30c2] | 6.00 to 7.00 | > 30 | – |
